Data taken from a melting point compilation (Tetko et al.).

Structure (SMILES)	melting point
CCCCCCCCCCCCCCCCS(=O)(=O)Nc1cccc2ccc(O)c(NS(=O)(=O)c3ccc(NC(C)=O)c4c(O)c(N=Nc5ccccc5OC)ccc34)c12	177 to 180 °C
CCc1nc(OC)c(NC(=O)N2CCN(c3cc(OC)c(OC)c(OC)c3)CC2)cc1C(=O)NC(C)C(=O)Nc1cc(CO)cc(Nc2c3ccccc3nc3ccccc23)c1 (stereo not drawn)	205 to 207 °C
C=CCOc1nc(NC(C)(C)CC(C)(C)C)nc(N(CCCCCCN(c2nc(NC(C)(C)CC(C)(C)C)nc(OCC=C)n2)C2CC(C)(C)NC(C)(C)C2)C2CC(C)(C)NC(C)(C)C2)n1	210 to 212 °C
CCCCC(Cc1cc(C(C)(C)C)c(O)c(C(C)(C)C)c1)(C(=O)OC1CC(C)(C)N(OC2CCCCC2)C(C)(C)C1)C(=O)OC1CC(C)(C)N(OC2CCCCC2)C(C)(C)C1	184 to 185 °C
COc1cccc2c1CC[C@@H](C(=O)O)C2	150 to 152 °C
CCOC(=O)C(C)OC1C(Cl)=C(OC2=C(Cl)C(OC(C)C(=O)OCC)C(c3ccccc3C(F)(F)F)([N+](=O)[O-])C=C2)C=CC1(c1ccccc1C(F)(F)F)[N+](=O)[O-] (stereo not drawn)	71 to 74 °C
CCOC(=O)c1c(Nc2ccccc2)n[nH]c1C	160 to 164 °C
CC(C)(C)c1cc(CCC(=O)OCC(COC(=O)CCc2cc(C(C)(C)C)c(O)c(C(C)(C)C)c2)(COC(=O)CCc2cc(C(C)(C)C)c(O)c(C(C)(C)C)c2)COC(=O)CCc2cc(C(C)(C)C)c(O)c(C(C)(C)C)c2)cc(C(C)(C)C)c1O	55 to 85 °C
CC(C)CCCC(C)C1CCC2C3CC=C4CC(N(CCCNC(=O)CCNC(=O)CCNC(=O)CCCCCNc5ccc([N+](=O)[O-])c6nonc56)S(=O)(=O)c5ccccc5[N+](=O)[O-])CCC4(C)C3CCC12C (stereo not drawn)	113 to 114 °C
C=CCOC(=O)NC(=O)C(c1ccccc1)c1ccccc1	118 to 120 °C
O=S(=O)(Cl)Cc1cccc(C(F)(F)F)c1	60 °C
CP(C)CCP(C)C	0 °C
CCCCCCCCCS(=O)(=O)c1cc2c3cc(S(=O)(=O)CCCCCCCCC)c(S(=O)(=O)CCCCCCCCC)cc3c3cc(S(=O)(=O)CCCCCCCCC)c(S(=O)(=O)CCCCCCCCC)cc3c2cc1S(=O)(=O)CCCCCCCCC	202 °C
CC(=O)OCC(CNC(=O)c1c(I)c(C(=O)NCC(COC(C)=O)OC(C)=O)c(I)c(N2C(=O)COCC2COC(C)=O)c1I)OC(C)=O (stereo not drawn)	210 to 212 °C
CCCCCCCCCCCCCCCCNc1ccc(C(=O)OCC(COC(=O)c2ccc(NCCCCCCCCCCCCCCCC)cc2)OC(=O)c2ccc(NCCCCCCCCCCCCCCCC)cc2)cc1	117 to 118 °C
CC(=O)Nc1cc(N2CCN(Cc3ccccc3)CC2)ccc1OCC(=O)N[C@@H](CC(N)=O)C(=O)N[C@@H](Cc1ccccc1)[C@H](O)C(=O)N1CCC[C@H]1C(=O)NC(C)(C)C	119 to 127 °C

Second part, the compound after the results:

melting point	Structure (SMILES)
174 to 176 °C	COc1cc(OC)c(/C=C/C(c2ccc(OC)c(NC(=O)CO)c2)S(=O)(=O)C(/C=C/c2c(OC)cc(OC)cc2OC)c2ccc(OC)c(NC(=O)CO)c2)c(OC)c1 (stereo not drawn)
89 to 90 °C	CCCCCc1nc(C)c(C(=O)OCC)n1Cc1ccc2oc(-c3ccccc3-c3nnn(C(c4ccccc4)(c4ccccc4)c4ccccc4)n3)c(Br)c2c1
235 °C	O=C(O)CN1CCN(CC(=O)O)CCN(CC(=O)Nc2c(I)cc(I)c(C(=O)O)c2I)CCN(CC(=O)O)CC1
130 to 133 °C	CC(=O)OCC(CNC(=O)c1c(I)c(C(=O)NCC(COC(C)=O)OC(C)=O)c(I)c(N2CCCC2=O)c1I)OC(C)=O (stereo not drawn)
229 to 231 °C	CC(NC(=O)C(CC(C(=O)O)C(C)(C)C)NC(=O)C(CC(C(=O)O)C(C)(C)C)NC(=O)C(NC(=O)C(N)C(C)C)C(C)C)C(=O)NC(CC(C(=O)O)C(C)(C)C)C(=O)NC(CC(N)=O)C(=O)OC(C)(C)C (stereo not drawn)
145 to 146 °C	Cc1ccc(OCC(=O)O)c(C(=O)NCc2ccc(Br)cc2F)c1
166 to 167 °C	CCCCCCCCCCCCCCCCCN1C(=O)C2=C(c3ccc(Br)s3)N(CCCCCCCCCCCCCCCCC)C(=O)C2=C1c1ccc(Br)s1
